{"source": "patent US20080050354A1", "about": "“PROTECTING BIOACTIVE FOOD INGREDIENTS USING MICROORGANISMS HAVING REDUCED METABOLIZING CAPACITY” (COMPAGNIE GERVAIS DANONE, priority 2004, published 2008)", "key": {"[1]": {"tested_on": "mouse peritoneal macrophages", "details": "in vitro; cited from earlier work"}, "[2]": {"details": "cited from earlier work"}, "pathogenic strains [3]": {"tested_on": "pathogenic strains", "details": "in vitro; cited from earlier work"}, "Staphylococcus aureus [4]": {"tested_on": "Staphylococcus aureus", "details": "sheep, IM injection; cited from earlier work"}, "Staphylococcus aureus [5]": {"tested_on": "Staphylococcus aureus", "details": "Mice, IM injection; cited from earlier work"}, "small intestine motility": {"tested_on": "small intestine motility", "details": "10 g/300 ml water via intragastric probe; cancelled with naloxone; cited from earlier work"}, "pathogenic strains [6]": {"tested_on": "pathogenic strains", "details": "in vitro; cited from earlier work", "remark": "listed apart in the source"}, "platelet aggregation": {"tested_on": "platelet aggregation", "details": "in vitro; cited from earlier work"}, "[7]": {"assay": "Storage of fermented product thermized at 75° C. for 1 minute", "details": "thermized 75° C., about 1 minute", "protocol": "FIG. 5: Curves illustrating the change in the residual content of bioactive peptide αS1 [91-100], added after fermentation in a fermented product and then thermized at 75° C. for 1 minute, and stored at 10° C. up to the expiry date.\n(FIG. 5), but at the expense of the overall quality of the finished product. Specifically, this solution has many drawbacks: • the thermization of a fermented dairy mass entails the use of stabilizers added before the heat treatment (pectins, starches, carrageenans, etc.), which complicates the process and substantially increases the cost of the formula; • the industrial manufacturing line is more complex and requires a larger specific investment; • the product no longer benefits from appellations associated with products containing live ferments (such as yogurt) and as a result loses the benefits associated with the consumption of lactic ferments; • the organoleptic impact (generally negative) is substantial."}}, "note": "Entries after “also recorded” stand apart in the source; their conditions may differ. Where two headings read alike, the source gives them in different places. Residues, ends and D or L forms follow the SMILES beside them.", "data": [{"compound": "191-193 casein: Bovine β-casein fragment 191-193 (LLY; UniProt P02666 206-208, looked up, fragment)", "values": [{"measurement": "effect on mouse peritoneal macrophages", "setting": "[1]", "result": "Stimulation of mouse"}, {"measurement": "in vivo protection", "setting": "[2]", "result": "No in vivo protection"}]}, {"compound": "CC[C@H](C)[C@H](NC(=O)[C@@H]1CCCN1C(=O)[C@H](Cc1cnc[nH]1)NC(=O)[C@H](CCCCN)NC(=O)[C@@H]1CCCN1C(=O)[C@@H](N)CCCNC(=N)N)C(=O)N[C@@H](CCCCN)C(=O)N[C@@H](Cc1cnc[nH]1)C(=O)N[C@@H](CCC(N)=O)C(=O)NCC(=O)N[C@@H](CC(C)C)C(=O)N1CCC[C@H]1C(=O)N[C@@H](CCC(N)=O)C(=O)N[C@@H](CCC(=O)O)C(=O)N[C@H](C(=O)N[C@@H](CC(C)C)C(=O)N[C@@H](CC(N)=O)C(=O)N[C@@H](CCC(=O)O)C(=O)N[C@@H](CC(N)=O)C(=O)N[C@@H](CC(C)C)C(=O)N[C@@H](CC(C)C)C(=O)N[C@@H](CCCNC(=N)N)C(=O)N[C@@H](Cc1ccccc1)C(=O)O)C(C)C", "note": "[isracidin] (H-RPKHPIKHQGLPQEVLNENLLRF-OH)", "values": [{"measurement": "growth of pathogenic strains", "setting": "pathogenic strains [3]", "result": "Inhibition of growth"}, {"measurement": "efficacy against Staphylococcus aureus", "setting": "Staphylococcus aureus [4]", "result": "Mice, sheep: effective in IM"}, {"measurement": "efficacy against Staphylococcus aureus", "setting": "Staphylococcus aureus [5]", "result": "Mice, sheep: effective in IM"}]}, {"compound": "Casein", "values": [{"measurement": "small intestine motility", "setting": "small intestine motility", "result": "intragastric probe: inhibition"}]}, {"compound": "Lactoferricin", "values": [{"measurement": "growth of pathogenic strains", "setting": "pathogenic strains [6]", "result": "Inhibition of growth"}]}, {"compound": "Peptide 106-116 of bovine κ-casein: Peptide 106-116 of bovine κ-casein (MAIPPKKNQDK; UniProt P02668 127-137, looked up, fragment)", "values": [{"measurement": "platelet aggregation", "setting": "platelet aggregation", "result": "Inhibition of"}]}, {"compound": "peptide αS1 [91-100]: fragment 91-100 of casein αS1; peptide with relaxing properties contained in the milk protein hydrolyzate Lactium® (Ingredia) (YLGYLEQLLR; UniProt P02662 106-115, looked up, fragment)", "values": [{"measurement": "stability of the peptide after heat treatment of the fermented product", "setting": "[7]", "result": "possible to ensure the stability; also recorded: possible to preserve"}]}]}
